Test results published in patent US11065235B2, “Substituted methanopyrido [2, 1-a] isoindolones as mAChR modulators for treating various associated pathophysiological conditions and process for preparation thereof” (COUNCIL OF SCIENTIFIC & INDUSTRIAL RESEARCH, priority 2017, dated 2021).
Where two headings read alike, the source gives them in different places. One block for each compound: values may come before it.

Columns and labels:
[1] = biological target: T1, human M3R (Homo sapiens, UniProt P20309); assay: NFAT-luciferase assay, M3; format: cell-based; design: IC50 activity, M3 muscarinic receptor antagonist: unit not given beside the values; settings: for selectivity among muscarinic receptors (in words): M1, M3 and M5 antagonist profiling; for effectiveness relative to known drug darifenacin at M3: compared with darifenacin 8.9 pKi
T1 construct: expressed in transfected cells; host or cells: HEK-293T
T1 sequence (P20309 whole entry): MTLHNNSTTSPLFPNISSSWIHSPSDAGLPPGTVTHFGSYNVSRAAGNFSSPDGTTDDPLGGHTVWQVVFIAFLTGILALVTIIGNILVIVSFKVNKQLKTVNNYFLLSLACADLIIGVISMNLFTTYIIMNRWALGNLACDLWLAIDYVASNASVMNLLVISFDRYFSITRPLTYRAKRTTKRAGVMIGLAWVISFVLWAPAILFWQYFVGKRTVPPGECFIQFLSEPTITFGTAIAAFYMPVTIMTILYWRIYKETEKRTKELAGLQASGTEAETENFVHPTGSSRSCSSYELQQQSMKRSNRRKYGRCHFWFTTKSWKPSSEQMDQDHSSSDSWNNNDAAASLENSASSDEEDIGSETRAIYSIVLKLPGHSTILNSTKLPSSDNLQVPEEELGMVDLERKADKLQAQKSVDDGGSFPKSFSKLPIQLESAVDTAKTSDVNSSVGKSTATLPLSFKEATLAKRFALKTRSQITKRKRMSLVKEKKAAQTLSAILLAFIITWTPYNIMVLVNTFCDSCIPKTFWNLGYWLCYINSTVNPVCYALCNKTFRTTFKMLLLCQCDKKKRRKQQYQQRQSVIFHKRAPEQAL
Experimental: (§1) To measure the agonist or antagonist activity at M1, M3 and M5 muscarinic receptor, NFAT-luciferase activity was performed in HEK-293T cells (procured from NCCS, Pune) by co-transfecting with human M1R or M3R or M5R and pGL4.30 (luc2P/NFAT-RE/Hygro; Promega Corp,) in 96 well format. The transfected cells were incubated at 37° C. in tissue culture incubator with 5% CO2 for 14-16 hours. To determine the if the test compounds are agonist, the transfected cells were treated with either 20 μl/well of carbamoyl choline (as a positive control) at various concentrations (10000 nM to 0.01 nM) or with various concentrations of test compounds (in triplicates) and were further incubated for 12 hrs in a humidified tissue culture incubator at 37° C. with 5% CO2. For antagonist mode assay, test compound incubation was followed by addition of 20 μl of 7 μM carbamoylcholine (agonist) to the plate. Following 12-14 hrs of drug treatment, media from the plate was aspirated and 100 μl of sodium luciferin solution (10 mg/ml) was added and luminescence per well was recorded using luminescence plate reader (BMG Labtech).

[2] = biological target: T2, human M2R (Homo sapiens, UniProt P08172); assay: GloSensor cAMP assay (Gi-mediated cAMP inhibition); format: cell-based; settings: M2, agonist, N.A. = not active; for IC50: read-out: pIC50/pEC50 (Mean ± SEM) M2 (converted)
T2 construct: expressed in transfected cells; host or cells: HEK-293T
T2 sequence (P08172 1-466): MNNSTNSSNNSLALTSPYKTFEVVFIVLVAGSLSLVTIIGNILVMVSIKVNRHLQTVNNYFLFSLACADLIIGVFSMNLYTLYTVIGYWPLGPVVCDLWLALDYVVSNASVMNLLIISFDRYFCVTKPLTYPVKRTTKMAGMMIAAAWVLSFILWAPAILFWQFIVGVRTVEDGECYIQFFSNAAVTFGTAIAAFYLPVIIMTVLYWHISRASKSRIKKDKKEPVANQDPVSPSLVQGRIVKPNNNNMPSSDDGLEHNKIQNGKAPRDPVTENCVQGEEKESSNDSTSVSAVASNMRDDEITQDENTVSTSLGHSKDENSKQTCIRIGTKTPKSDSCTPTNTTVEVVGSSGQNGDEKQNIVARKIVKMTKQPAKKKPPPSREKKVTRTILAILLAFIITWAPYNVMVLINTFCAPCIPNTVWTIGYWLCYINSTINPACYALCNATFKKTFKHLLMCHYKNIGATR
Experimental: To measure M2 muscarinic receptor induced (Gi-mediated) cAMP inhibition, HEK-293T cells (procured from NCCS, Pune) were co-transfected with human M2R and luciferase based cAMP biosensor (pGloSensor™-22F plasmid; Promega) using PEImax method of transfection in the ratio of 1:1. The transfected cells were incubated at 37° C. in tissue culture incubator with 5% CO2 for 14-16 hours. For GloSensor cAMP assay, after overnight incubation, media from the plate was aspirated and 100 μl of sodium luciferin solution in drug buffer (1×HBSS (pH7.4) and 20 mM HEPES) was added to the cell plates. The plates were then incubated at 37° C. in tissue culture incubator with 5% CO2 for 90 minutes. After incubation, cells were treated with 20 μl of 6× diluted standard carbamoyl choline (10000 nM to 0.01 nM) along with test compounds (in triplicates) and were incubated in a humidified tissue culture incubator at 37° C. with 5% CO2 for 10-15 minutes to get a steady state condition. Ligand incubation was followed by addition of 20 μl of 7×(70 μM) forskoline (FSK) to the plate. FSK incubation was followed by incubation at 37° C. for 10-15 minutes and measurement of luminescence per well using luminescence plate reader (BMG Labtech). The results were plotted as inhibition of FSK stimulated cAMP response (relative luminescence units) using nonlinear regression analysis by Graph-Pad prism V.

[3] = test system: Scopolamine induced memory deficit; assay: Novel object recognition (NOR) test, scopolamine induced memory deficit; format: in vivo, mice; settings: scopolamine alone 0.5 mg/kg i.p., vs vehicle, p<0.05
Excerpt: (§2) All animal experiments and procedures were executed in accordance with the guidelines established in the guide for the care and use of laboratory animals and were approved by the institutional animal ethics committee (IAEC) of CSIR-Central Drug Research Institute, Lucknow, India. In this study, male C57BL/6J mice (6-8 weeks old) weighing 22-25 g were used. They were housed on a 12-h light/dark cycle (lights on at 8.00 am) and food and water were provided ad libitum. Animals were acclimatized to the experimental room 30 minutes prior to the beginning of behavioral procedures. For experimental purpose, animals were randomly divided into four groups: vehicle, RG-02, scopolamine and scopolamine along with RG-02. In scopolamine along with RG-02 group, RG-02 (10 mg/kg, i.p) was injected thirty minutes prior to the scopolamine (0.5 mg/kg, i.p.) injections.
The NOR test was performed according to the protocol introduced by Ennaceur and Delacour (Ennaceur & Delacour, 1988) with slight modification.
The NOR task procedure consisted of three sessions—[…], familiarization and test session. During habituation session, the mouse was placed in an open field (Square box of 40×40×40 cm), facing the wall of the arena, and allowed to explore the entire arena for 10 minutes. Following habituation period of 10 minutes, the mouse was returned to its home cage.
Between every […] session, the whole arena was cleaned with 10% ethanol to reduce olfactory cues. […] During this session, the test animal was placed in the arena and was allowed to explore the entire arena with familiar and novel object, and its activity was also video recorded. To determine the retention of object memory, the recorded videos of test session were analyzed by independent observer who was unknown to treatment of mice to calculate the time spent in exploring both objects. Data are presented as % time of exploration of familiar or novel object, and discrimination index was calculated as per following equation: (Tn−Tf)/Tt: Discrimination Index […]

[4] = test system: Scopolamine induced memory deficit; assay: Morris water maze (MWM) test, scopolamine induced learning deficit; format: in vivo, mice; settings: scopolamine alone 0.5 mg/kg i.p.
Excerpt: as §2
The Morris water maze (MWM) test was performed according to Morris 1984, with slight modifications. Circular pool of dimensions-100 cm diameter and 45 cm depth, which was filled up to 25 cm from bottom with white colour water. Temperature of water was adjusted to 24-25° C. Pool was divided into four quadrants and a square platform of 10×10 cm in was placed into the tank at a fixed location in the centre of one of the four imaginary quadrants. Training sessions were conducted for 3 consecutive days and on 4th day a probe trial was performed. During training session, mouse was gently placed into the water facing the edge of the pool of one of the quadrant. If the mouse was able to find the platform before the 60 sec cut-off, it was allowed to stay over the platform for 5 more seconds followed by returning to its home cage. […] Total three trials/day were run for each mouse with minimum interval of 10-15 minutes between two trials, and latency to reach the platform was calculated. On the fourth day, for the probe trial, the platform was removed and the time spent in respective quadrant was calculated.

[5] = biological target: T3, human M1R (Homo sapiens, UniProt P11229); assay: NFAT-luciferase assay, M1; format: cell-based; settings: antagonist
T3 construct: expressed in transfected cells; host or cells: HEK-293T
T3 sequence (P11229 1-460): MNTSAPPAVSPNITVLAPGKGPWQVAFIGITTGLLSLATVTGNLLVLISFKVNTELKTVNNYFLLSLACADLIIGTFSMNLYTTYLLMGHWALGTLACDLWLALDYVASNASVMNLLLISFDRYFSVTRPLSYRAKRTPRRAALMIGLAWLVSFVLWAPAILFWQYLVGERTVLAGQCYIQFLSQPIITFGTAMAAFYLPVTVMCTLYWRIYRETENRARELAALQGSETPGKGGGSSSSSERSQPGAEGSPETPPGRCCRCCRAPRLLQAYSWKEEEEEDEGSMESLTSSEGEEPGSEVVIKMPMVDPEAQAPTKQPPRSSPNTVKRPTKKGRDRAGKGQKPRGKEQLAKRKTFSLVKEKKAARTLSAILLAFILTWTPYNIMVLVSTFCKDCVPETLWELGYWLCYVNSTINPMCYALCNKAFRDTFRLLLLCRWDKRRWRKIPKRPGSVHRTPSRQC
Experimental: as §1

[6] = M3, antagonist, N.A. = not active, read-out: pIC50/pEC50 (Mean ± SEM) M3 (converted)

Compound: Cc1ccc(S(=O)(=O)[C@]23C[C@@H]4C(=O)CCC[C@H]4N4[C@H](C2=O)c2ccccc2[C@@H]43)cc1 [RG-06, (4aS,6S,6aR,11S,12aR)-6-tosyl-1,2,3,4a,5,6,6a,12a-octahydro-6,11-methanoisoindolo[2,1-a]quinoline-4,13(11H)-dione]
antagonist activity at M3 receptor (in words) [1]: high affinity antagonist of M3 receptor | selectivity among muscarinic receptors (in words) [1]: selective M3 muscarinic receptor antagonist | IC50 [1, 6]: 0.129 nM | IC50 activity, M3 muscarinic receptor antagonist ([1]; as worded in closing text): 9.89 | effectiveness relative to known drug darifenacin at M3 [1]: tenfold more effective

Compound: O=C1CCC[C@@H]2[C@@H]1C[C@@]1(S(=O)(=O)c3ccccc3)C(=O)[C@@H]3c4ccccc4[C@H]1N32 [(−)-RG-02, (−)-(4aS,6S,6aR,11S,12aR)-6-(phenylsulfonyl)-1,2,3,4a,5,6,6a,12a-octahydro-6,11-methanoisoindolo[2,1-a]quinoline-4,13(11H)-dione]
pIC50/pEC50 (Mean ± SEM) M2 [2]: 8.38 ± 0.35 (agonist)

Compound: COC(=O)[C@@H]1c2ccccc2[C@@H]2[C@H](S(=O)(=O)c3ccccc3)C[C@@H]3C(=O)CCC[C@H]3N12 [RG-04, (4aS,6R,6aR,11S,12aR)-methyl 4-oxo-6-(phenylsulfonyl)-1,2,3,4,4a,5,6,6a,11,12a-decahydroisoindolo[2,1-a]quinoline-11-carboxylate]
IC50 [2]: 566 nM

Compound: CN1[C@@H]2C[C@@H](OC(=O)[C@H](CO)c3ccccc3)C[C@H]1[C@@H]1O[C@@H]12 [scopolamine, reference compound]
exploration time for the novel object [3]: marked reduction in the exploration time for the novel object | latency to reach the platform ([4]; Day-3): increased latency to reach the platform | time in quadrant with platform (probe trial) ([4]; vs vehicle or RG-02): spent lesser time in quadrant with platform

Compound: CCOC(=O)[C@@H]1c2ccccc2[C@@H]2[C@H](S(=O)(=O)c3ccccc3)C[C@@H]3C(=O)CCC[C@H]3N12 [RG-05, (4aS,6R,6aR,11S,12aR)-ethyl 4-oxo-6-(phenylsulfonyl)-1,2,3,4,4a,5,6,6a,11,12a-decahydroisoindolo[2,1-a]quinoline-11-carboxylate]
IC50 [2]: 2160 nM

Compound: Cc1ccc(S(=O)(=O)[C@]23C[C@H]4C(=O)CC[C@H]4N4[C@H](C2=O)c2ccccc2[C@@H]43)cc1 [RG-09, (3aR,5S,5aR,10S,11aR)-5-tosyl-3a,4,5,5a,10,11a-hexahydro-1H-5,10-methanocyclopenta[5,6]pyrido[2,1-a]isoindole-3,12(2H)-dione]
antagonist activity at M3 receptor (in words) [1]: high affinity antagonist of M3 receptor | selectivity among muscarinic receptors (in words) [1]: selective M3 muscarinic receptor antagonist | IC50 ([1]; as worded in closing text, read-out: IC50 activity, M3 muscarinic receptor antagonist (converted)): 0.102 nM | effectiveness relative to known drug darifenacin at M3 [1]: tenfold more effective

IC50 ([5]; M1, N.A. = not active, read-out: pIC50/pEC50 (Mean ± SEM) M1 (converted)): 871 nM | IC50 ([5]; read-out: IC50 at M1 receptor): ≤ 1000 nM | antagonist activity at M3 receptor (in words) [1]: high affinity antagonist of M3 receptor | IC50 [1, 6]: 0.107 nM
Compound: Cc1ccc(S(=O)(=O)[C@]23CC4=C(OS(=O)(=O)C(F)(F)F)CCC[C@H]4N4[C@H](C2=O)c2ccccc2[C@@H]43)cc1 [RG-13, (6S,6aR,11S,12aR)-13-oxo-6-tosyl-1,2,3,5,6,6a,11,12a-octahydro-6,11-methanoisoindolo[2,1-a]quinolin-4-yl trifluoromethanesulfonate]
selectivity among muscarinic receptors (in words) [1]: nonselective muscarinic receptor antagonist
